Experimental data reported in patent US5457103A, “3',5'-di-tert.-butyl-4'-hydroxy flavones” (Adir et Compagnie, priority 1992, dated 1995).

Tests used:
Human LDLs [1] = test: Modification of LDLs by copper sulphate (inhibition of LDL oxidation, MDA production); format: biochemical; settings: 24 hours, copper sulfate 5 μM, compounds 0.1 μM to 100 μM; read-out: IC50 (reduction by 50% of the production of MDA), oxidation of LDLs by copper sulfate
Procedure: (§1) This activity was compared with that of probucol and vitamin E taken as reference products.
Modification of LDLs by copper sulphate
Human LDLs are incubated for 24 hours in the presence of copper sulfate (5 μM) and in the absence or in the presence of the compounds tested (from 0.1 μM to 100 μM).
After incubation, the peroxidation of the LDLs is evaluated by electrophoresis on agar gel and by the formation of one of the products of lipid peroxidation: malonic dialdehyde (MDA) (cf. Parthasarathy S. et al., J. Clin. Invest., 77, (1986), 641-644).
The activity of the compounds tested is evaluated by calculating the concentrations that reduce by 50% (IC50) the production of MDA compared with the control experiments in the absence of a product of the invention.

Human LDLs [2] = test: Modification of LDLs by endothelial cells of the rabbit aorta (inhibition of LDL oxidation, MDA production); format: cell-based; settings: 24 hours, endothelial cells of rabbit aorta (RECL B4 line), compounds 0.1 to 100 μM; read-out: IC50 (reduction by 50% of the production of MDA), oxidation of LDLs by endothelial cells
Procedure: as §1
Modification of LDLs by endothelial cells
Human LDLs are incubated for 24 hours in the presence of endothelial cells of the rabbit aorta (RECL B4 line, provenance: Pr. Steinberg, USA) and in the absence or in the presence of the tested compounds (from 0.1 to 100 μM).
After incubation, the peroxidation of the LDLs is evaluated as in Example 21 by electrophoresis on agar gel and by the formation of MDA (cf. Steinbrecher, U.P. et al., Proc. Nat. Acad. Sci. USA, 81, (1984), 3883-3887). The activity of the compounds tested is evaluated by calculating the concentrations that reduce by 50% (IC50) the production of MDA compared with the control experiments in the absence of a product of the invention.
The results of this test of inhibition of oxidation of LDLs by endothelial cells are grouped below: […]

[3] = tested on: coronary arteries caused to contract by F2α prostaglandin (PGF2α); test: Vasorelaxant activity on isolated coronary artery rings contracted by PGF2α; set-up: species or system Yucatan miniature pigs; settings: for activity at 0.1 µM / activity at 0.3 µM / activity at 1 µM / activity at 3 µM / activity at 10 µM: 0.25 h, PGF2α 4 μM, indomethacin 10 μM, cumulative concentrations every 15 minutes, read-out: tension as a percentage of the maximum tension observed under PGF2α
Procedure: Study of the compounds of the invention on isolated vessels
Yucatan miniature pigs (Ch. River) are anaesthetised with pentobarbitone. The circumflex branch of the left coronary artery is removed and proximal rings of approximately 4 mm are prepared. The organs are placed in a temperature-controlled 20 ml bath containing a physiological solution having the composition:
maintained at 37° C., pH =7.4 and with 95% oxygen and 5% carbon dioxide. The initial tension is established progressively up to 6 g. After a stabilisation period of 60 minutes, the rings are caused to contract by PGF2a (4 μM) in the presence of indomethacin (10 μM). As soon as this concentration has stabilised, the products of the present invention are tested by adding cumulative concentrations of the product of Example 17 and probucol every 15 minutes in comparison with the control experiments with the solvent used (dimethyl sulfoxide:DMSO).

Compound	IC50 (Human LDLs [1]) [nM]	IC50 (Human LDLs [2]) [nM]	other results
CC(C)(C)c1cc(-c2cc(=O)c3ccc(O)cc3o2)cc(C(C)(C)C)c1O [Example 1, 3',5'-di-tert-butyl-7,4'-dihydroxyflavone]	1000		
CCCCCCOc1ccc2c(=O)cc(-c3cc(C(C)(C)C)c(O)c(C(C)(C)C)c3)oc2c1 [Example 2, 3',5'-di-tert.-butyl-7-n-hexyloxy-4'-hydroxyflavone]	5000		
CC(C)(C)c1cc(-c2cc(=O)c3ccc(OCC(=O)N4CCCCC4)cc3o2)cc(C(C)(C)C)c1O [Example 5, 3',5'-di-tert-butyl-4'-hydroxy-7-(2"-piperidino-2"-oxoethoxy)flavone]	3000		
CC(C)(C)c1cc(-c2cc(=O)c3ccc(OCC(=O)N4CCN(Cc5ccccc5)CC4)cc3o2)cc(C(C)(C)C)c1O [Example 6, 3',5'-di-tert.-butyl-4'-hydroxy-7-[2"-(N-benzylpiperazino)-2"-oxo-ethoxy]flavone]	3000		
CC(C)(C)c1cc(-c2cc(=O)c3ccccc3o2)cc(C(C)(C)C)c1O [Example 14, 3',5'-di-tert-butyl-4'-hydroxyflavone]	3000	2500	
CCOC(=O)C(C)(C)Oc1ccc2c(=O)cc(-c3cc(C(C)(C)C)c(O)c(C(C)(C)C)c3)oc2c1 [Example 15, Ethyl 2-17-(3',5'-di-tert.-butyl-4'-hydroxy)flavonyl]oxy-2,2-dimethyl acetate]	3000	500	
CC(C)(C)c1cc(-c2cc(=O)c3ccc(OCC(=O)O)cc3o2)cc(C(C)(C)C)c1O [Example 17, 2-[7-(3',5'-di-tert.-butyl-4'-hydroxy)flavonyl]oxyacetic acid]	3000	500	

Further lines, with some results ahead:

IC50 (Human LDLs [1]) [nM]	IC50 (Human LDLs [2]) [nM]	Compound	other results
800		CC(C)(C)c1cc(-c2cc(=O)c3ccc(OCCN4CCOCC4)cc3o2)cc(C(C)(C)C)c1O [Example 3, 3', 5'-di-tert.-butyl-4'-hydroxy-.7-(4"-morpholinylethoxy)flavone]	
7000		CC(C)(C)c1cc(-c2cc(=O)c3ccc(OCc4ccc(Cl)cc4)cc3o2)cc(C(C)(C)C)c1O [Example 4, 7-p-chlorobenzyloxy-3',5'-di-tert.-butyl-4'-hydroxyflavone]	
3000		CCN(CC)C(=O)COc1ccc2c(=O)cc(-c3cc(C(C)(C)C)c(O)c(C(C)(C)C)c3)oc2c1 [Example 7, 3',5'-di-tert-butyl-4'-hydroxy-7-(N,N-diethylacetamidoxy) flavone]	
3000	800	CCOC(=O)COc1ccc2c(=O)cc(-c3cc(C(C)(C)C)c(O)c(C(C)(C)C)c3)oc2c1 [Example 16, Ethyl 2-[7-(3',5'-di-tert.-butyl-4'-hydroxy)flavonyl]oxyacetate]	activity at 0.1 µM ([3]; Sus scrofa): 95.4%; activity at 0.3 µM ([3]; Sus scrofa): 85%; activity at 1 µM ([3]; Sus scrofa): 74.1%; activity at 3 µM ([3]; Sus scrofa): 37.3%; activity at 10 µM ([3]; Sus scrofa): 20.2%; IC50 ([3]; Sus scrofa, coronary artery rings contracted by PGF2α, read-out: IC50 of vascular relaxation): ~2600 nM; vascular relaxation (in words) ([3]; coronary artery rings contracted by PGF2α): concentration-dependent vascular relaxation
5000		CC(C)(C)c1cc(-c2cc(=O)c3ccc(OCC(=O)O)cc3o2)cc(C(C)(C)C)c1O [Example 18]	
30000	700	CC(C)(C)c1cc(C(=O)Oc2ccc3c(=O)cc(-c4cc(C(C)(C)C)c(O)c(C(C)(C)C)c4)oc3c2)cc(C(C)(C)C)c1O [Example 20, 3',5'-di-tert-butyl-4'-hydroxy-7-(3",5"-di-tert-butyl-4"-hydroxy)benzoyloxyflavone]	
3000	4000	CC(C)(Sc1cc(C(C)(C)C)c(O)c(C(C)(C)C)c1)Sc1cc(C(C)(C)C)c(O)c(C(C)(C)C)c1 [PROBUCOL, reference compound]	activity at 0.1 µM ([3]; Sus scrofa): 93.3%; activity at 0.3 µM ([3]; Sus scrofa): 85.6%; activity at 1 µM ([3]; Sus scrofa): 77.3%; activity at 3 µM ([3]; Sus scrofa): 66%; activity at 10 µM ([3]; Sus scrofa): 49.2%
> 100000	4000	VITAMIN E [reference compound]	
